Measurements published in patent US10526358B2, “Crystalline forms” (GRUNENTHAL GMBH, priority 2016, dated 2020).

Assays:
[1] = FDA SBA; cited from earlier work
[2] = apparent water solubility at room temperature; format: physicochemical
[3] = in vivo; cited from earlier work
[4] = FDA SBA; cited from earlier work; remark: listed apart in the source
[5] = cited from earlier work

## O=P(O)(O)C(O)(Cn1ccnc1)P(=O)(O)O [Zoledronic acid, (1-hydroxy-2-imidazol-1-yl-1-phosphono-ethyl)phosphonic acid]
[1]
  oral bioavailability: approximately 1%
[2]
  apparent water solubility: few
[3]
  gastric and intestinal irritations: severe gastric and intestinal irritations
[4]
  permeability in the GI tract: poor permeability
[5]; 0.1 N HCl
  solubility in 0.1 N HCl solution: sparingly soluble
[5]; 0.1 N NaOH
  solubility in 0.1 N NaOH: freely soluble
[5]; various organic solvents
  solubility in various organic solvents: practically insoluble
[5]; water
  solubility in water: sparingly soluble
